Reference: ChEMBL document CHEMBL1157802, “5-Functionalized indazoles as glucocorticoid receptor agonists” (Bioorg Med Chem Lett, 2010)

Biological target: T1, Glucocorticoid receptor (Homo sapiens, UniProt P04150)
T1 sequence (P04150 whole entry): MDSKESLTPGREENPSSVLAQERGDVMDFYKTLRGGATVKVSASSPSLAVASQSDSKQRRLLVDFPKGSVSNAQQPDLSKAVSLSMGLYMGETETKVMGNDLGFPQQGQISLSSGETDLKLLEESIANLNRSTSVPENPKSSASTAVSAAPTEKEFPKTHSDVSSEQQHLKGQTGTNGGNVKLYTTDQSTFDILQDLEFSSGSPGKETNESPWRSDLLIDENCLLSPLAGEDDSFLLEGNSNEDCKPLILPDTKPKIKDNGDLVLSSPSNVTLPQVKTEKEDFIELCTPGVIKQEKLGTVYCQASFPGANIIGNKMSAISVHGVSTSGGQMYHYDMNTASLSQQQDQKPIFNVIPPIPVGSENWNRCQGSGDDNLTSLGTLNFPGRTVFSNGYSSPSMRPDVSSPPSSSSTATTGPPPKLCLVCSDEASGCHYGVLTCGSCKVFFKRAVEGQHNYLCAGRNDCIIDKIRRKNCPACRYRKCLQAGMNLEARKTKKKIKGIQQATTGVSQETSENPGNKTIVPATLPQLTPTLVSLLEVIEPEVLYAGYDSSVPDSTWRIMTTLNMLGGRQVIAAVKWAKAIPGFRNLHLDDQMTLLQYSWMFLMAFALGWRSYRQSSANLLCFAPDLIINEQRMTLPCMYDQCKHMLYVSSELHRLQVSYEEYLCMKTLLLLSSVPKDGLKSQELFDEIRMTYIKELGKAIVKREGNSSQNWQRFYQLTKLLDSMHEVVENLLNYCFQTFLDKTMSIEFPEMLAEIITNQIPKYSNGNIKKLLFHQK
Description: Binding affinity to human glucocorticoid receptor by fluorescence polarization competitive binding assay

| IC50 | SMILES |
| --- | --- |
| 54 nM | OC(c1ccc2c(cnn2-c2ccc(F)cc2)c1)(c1ccccc1F)C(F)(F)F (stereo unspecified) |
| 35 nM | OC(c1ccc2c(cnn2-c2ccc(F)cc2)c1)(c1ccccc1Cl)C(F)(F)F (stereo unspecified) |
| 72 nM | OC(c1cccc(Cl)c1)(c1ccc2c(cnn2-c2ccc(F)cc2)c1)C(F)(F)F (stereo unspecified) |
| 99 nM | N#Cc1cccc(C(O)(c2ccc3c(cnn3-c3ccc(F)cc3)c2)C(F)(F)F)c1 (stereo unspecified) |
| 30 nM | N#Cc1cc(C(O)(c2ccc3c(cnn3-c3ccc(F)cc3)c2)C(F)(F)F)ccc1F (stereo unspecified) |
| 178 nM | OC(c1ccc(Cl)c(Cl)c1)(c1ccc2c(cnn2-c2ccc(F)cc2)c1)C(F)(F)F (stereo unspecified) |
| 52 nM | Cc1cccc(C(O)(c2ccc3c(cnn3-c3ccc(F)cc3)c2)C(F)(F)F)c1 (stereo unspecified) |
| 10000 nM | OC(c1ccc(F)cc1)c1ccc2c(cnn2-c2ccc(F)cc2)c1 (stereo unspecified) |
| 282 nM | Cc1ccccc1C(O)(c1ccc2c(cnn2-c2ccc(F)cc2)c1)C(F)(F)F (stereo unspecified) |
| 2110 nM | CC(O)(c1ccc(F)cc1)c1ccc2c(cnn2-c2ccc(F)cc2)c1 (stereo unspecified) |
| 2090 nM | Cc1ccc(C(O)(c2ccc3c(cnn3-c3ccc(F)cc3)c2)C(F)(F)F)cc1 (stereo unspecified) |
| 3000 nM | OC(c1ccc(F)cc1)(c1ccc2c(cnn2-c2ccc(F)cc2)c1)C(F)(F)F (single isomer, unassigned; (+)) [2,2,2-TRIFLUORO-1-(4-FLUOROPHENYL)-1-(1-(4-FLUOROPHENYL)-1H-INDAZOL-5-YL)ETHANOL (DIASTEREOMERIC MIX)] |
| 86 nM | OC(c1ccc(F)cc1)(c1ccc2c(cnn2-c2ccc(F)cc2)c1)C(F)(F)F (single isomer, unassigned; (-)) [2,2,2-TRIFLUORO-1-(4-FLUOROPHENYL)-1-(1-(4-FLUOROPHENYL)-1H-INDAZOL-5-YL)ETHANOL (DIASTEREOMERIC MIX)] |
| 161 nM | OC(c1ccc(F)cc1)(c1ccc2c(cnn2-c2ccc(F)cc2)c1)C(F)(F)F (stereo in doubt; 12) [2,2,2-TRIFLUORO-1-(4-FLUOROPHENYL)-1-(1-(4-FLUOROPHENYL)-1H-INDAZOL-5-YL)ETHANOL (DIASTEREOMERIC MIX)] |

| SMILES | IC50 |
| --- | --- |
| OC(c1ccc(F)c(Cl)c1)(c1ccc2c(cnn2-c2ccc(F)cc2)c1)C(F)(F)F (stereo in doubt; 18) [1-(3-CHLORO-4-FLUOROPHENYL)-2,2,2-TRIFLUORO-1-(1-(4-FLUOROPHENYL)-1H-INDAZOL-5-YL)ETHANOL (ENANTIOMERIC MIX)] | 117 nM |
| OC(c1ccc2c(cnn2-c2ccc(F)cc2)c1)(c1cccc(Cl)c1Cl)C(F)(F)F (stereo in doubt; 23) [1-(2,3-DICHLOROPHENYL)-2,2,2-TRIFLUORO-1-(1-(4-FLUOROPHENYL)-1H-INDAZOL-5-YL)ETHANOL (ENANTIOMERIC MIX)] | 87 nM |
